Measured values taken from article PMC10218257, “Ionic Levothyroxine Formulations: Synthesis, Bioavailability, and Cytotoxicity Studies” (International Journal of Molecular Sciences, 2023).
Where two headings read alike, the source gives them in different places.

Experiments:
[1] = Solubility assays in water, PBS and serum; type: physicochemical
Experimental: All the assays were carried out in triplicate. The average and standard deviation were calculated for the three replicates.

[2] = Permeability assays, Franz-type diffusion cell; parameters: Kd (partition coefficient): unit not given beside the values
Excerpt: In this context, a polyethersulphone (PES-U) membrane was selected for the determination of these two parameters. The diffusion coefficient is associated with the amount of API diffused with time. Therefore, the increase in the diffusion coefficient is proportional to the speed of the drug's diffusion through the membrane. Another aspect to consider is that the solubility of the drug is proportional to the driving force. […] The chosen membrane was polyethersulphone (PES-U) with 150 μm thickness and 0.45 μm pore size (Sartorius Stedim Biotech, Göttingen, Germany), which was placed between the two compartments and held with a stainless-steel clamp. The receptor compartment was filled with PBS solution, and air bubbles were removed. […] The determination of the API diffused was performed by HPLC. The assays were performed with three replicates. […] The cumulative mass of drug diffused to the receptor compartment was determined taking into consideration the replacement of aliquots with fresh medium and the dilution derived from the addition of fresh buffer. […] According to a derived solution of Fick's law of diffusion, it is possible to determine the diffusion coefficient, D, of the API through the membrane. […] Cf and Ci are the final and initial concentrations in the receptor compartment, and Ct is the concentration in the receptor compartment at time t.

[3] = Thermogravimetric analysis (TGA); type: physicochemical; conditions: 5 °C min^−1, argon
Experimental: Thermogravimetric analyses were performed over a temperature range from room temperature to 500 °C in a thermogravimetric analyzer from Setaram Labsys EVO (France) with a weighing precision of ±0.01%. Each run was conducted at a heating rate of 5 °C min^−1, under a highly pure argon atmosphere purged at 50 mL min^−1, with a mass sample between 8 and 10 mg.

[4] = system: L929 cells; test: Cell viability assay (MTS, CellTiter 96); type: cell-based; conditions: 24 h exposure, 50 and 75 ppm
Experimental: The biological effect of compounds was evaluated on the L929 cell line (DSMZ—German Collection of Microorganisms and Cell Culture GmbH). […] Cells only incubated with complete media were used as negative control and DMSO was chosen […]. […] The amount of formazan product was measured in a microplate reader (VICTOR Nivo TM, PerkinElmer, Waltham, MA, USA) at 490 nm, as absorbance is directly proportional to the number of viable cells in culture. Cell viability was expressed as the percentage of cells exposed to extracts vs. controls. Statistical analysis was performed using GraphPad Prism 7.00 software. A two-way ANOVA test was performed as well as Tukey’s multiple comparison test.

[5] = PES-U membrane, 37 °C, 50 mg L^−1, 8-hour assay

Compound | Solubility in PBS 37 °C ([1]; PBS, 37 °C) [mg/mL] | Solubility in Serum 37 °C ([1]; serum, 37 °C) [mg/mL] | Solubility in Water 25 °C ([1]; water, 25 °C) [mg/mL] | Solubility in Water 37 °C ([1]; water, 37 °C) [mg/mL] | Kd (partition coefficient) [2] | Permeability [2] | ΔTons, onset shifted to lower temperatures vs neat [Na][T4] [3] | Cell viability / cytotoxicity [4] | Diffusion [2, 5] | Permeability [2, 5] | onset of the major weight decrease (degradation) [3] [°C]
1-(2-Hydroxyethyl)-3-Methylimidazolium Levothyroxine [[C2OHMiM][T4]] | 0.324 ± 0.004 | 0.321 ± 0.007 | 0.277 ± 0.034 | 0.379 ± 0.022 | 0.45 | 1.02 (×10^−5) cm s^−1 | ~ 30 °C |  |  |  | 
NC(Cc1cc(I)c(Oc2cc(I)c(O)c(I)c2)c(I)c1)C(=O)[O-].[Na+] (centres unmarked) [[Na][T4], Levothyroxine sodium salt pentahydrate, reference compound] |  |  |  |  |  |  |  | without losing their viability | 0.49 (×10^−6) cm^2 s^−1 | 2.04 (×10^−5) cm s^−1 | 175
